In PubChem BioAssay (NCI) one finds GI50 and TGI data, which are given here for 8 molecules.

Some test systems named below: MDA-MB-231 breast; NCI-H23 lung; M14 melanoma; SK-MEL-28 melanoma; A549 NSCLC; CCRF-CEM leukemia; TK-10 renal; SK-MEL-5 melanoma; SK-MEL-2 melanoma; SNB-75 CNS.
Assay in all cases: NCI tumour cell line growth inhibition, 48 h

The structures appear in SMILES notation.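 Results reflect a 48-hour exposure of cells in 96-well plates to compound at five concentrations. GI50 is the concentration that inhibits growth by half. TGI: concentration producing complete growth inhibition.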

On to `COc1ccc2c(c1)/C(=C\c1c(Cl)[nH]c3ccc(OC)cc13)C(=O)N2`, for which the GI50 is 27.8 µM with MDA-MB-231 breast; > 100 µM in the test on NCI-H23 lung; 21.9 µM with M14 melanoma; 15.9 µM with SK-MEL-28 melanoma; 65.1 µM in the test with A549 NSCLC; 32.5 µM with CCRF-CEM leukemia. In addition, the GI50 is 44 µM in the test with TK-10 renal and 25.8 µM in the test on SK-MEL-2 melanoma. The TGI was 75.2 µM in the test on MDA-MB-231 breast; > 100 µM in the test on NCI-H23 lung; 39.8 µM in the test on M14 melanoma; 40.4 µM with SK-MEL-28 melanoma; > 100 µM with A549 NSCLC; > 100 µM in the test on CCRF-CEM leukemia. In addition, the values for the TGI with TK-10 renal, in the test with SK-MEL-5 melanoma and with SK-MEL-2 melanoma were > 100 µM, 25.3 µM and 62.8 µM, respectively.

Regarding `COc1ccc(-c2oc3c(OC)c(OC)c(OC)c(OC)c3c(=O)c2OC)cc1OC`, the TGI in the test with MDA-MB-231 breast, in the test on NCI-H23 lung, in the test on M14 melanoma, in the test on SK-MEL-28 melanoma, in the test with A549 NSCLC and in the test with CCRF-CEM leukemia was > 100 µM in each case. Besides, the TGI in the test on TK-10 renal was > 100 µM; in the test on SK-MEL-5 melanoma, 66.3 µM; in the test with SK-MEL-2 melanoma, > 100 µM.

With `NC(N)=NCCC1OC(=O)C2=C1c1c(O)ccc3nccc(c13)O2` (centres undefined), the GI50 with MDA-MB-231 breast, in the test on NCI-H23 lung, in the test on M14 melanoma, with SK-MEL-28 melanoma, in the test on A549 NSCLC and in the test on CCRF-CEM leukemia was > 100 µM each time. Further, the results for the GI50 in the test on TK-10 renal, in the test with SK-MEL-5 melanoma and in the test on SK-MEL-2 melanoma were > 100 µM, 62.1 µM and > 100 µM, respectively. The TGI in the test with MDA-MB-231 breast, in the test on NCI-H23 lung, in the test with M14 melanoma, in the test on SK-MEL-28 melanoma, with A549 NSCLC and in the test with CCRF-CEM leukemia was > 100 µM each time. Further, the TGI in the test on TK-10 renal, in the test on SK-MEL-5 melanoma and in the test with SK-MEL-2 melanoma was > 100 µM in each case.

For `CCCOc1ccc2nc(NC(=O)OC)[nH]c2c1`, the GI50 in the test with MDA-MB-231 breast is 0.399 µM; in the test on NCI-H23 lung it was 0.34 µM; with M14 melanoma, 0.14 µM; with SK-MEL-28 melanoma it was 0.285 µM; with A549 NSCLC it was 0.337 µM; in the test with CCRF-CEM leukemia it was 0.273 µM. Further, the GI50 is > 25.5 µM with TK-10 renal, 0.0796 µM with SK-MEL-5 melanoma and 1.19 µM in the test with SK-MEL-2 melanoma. Moreover, the TGI in the test on MDA-MB-231 breast, with NCI-H23 lung, with M14 melanoma, in the test on SK-MEL-28 melanoma, in the test on A549 NSCLC and in the test with CCRF-CEM leukemia was > 100 µM throughout. Also, the values for the TGI in the test with TK-10 renal, in the test with SK-MEL-5 melanoma and in the test with SK-MEL-2 melanoma were > 100 µM, 1.73 µM and > 100 µM, respectively.

Consider `CN(C)CCCNC(=O)c1ccc2c(c1)oc1cc3ccccc3c(=O)n12`, for which the GI50 in the test on MDA-MB-231 breast is 16.9 µM; with NCI-H23 lung, 35.4 µM; in the test with M14 melanoma, 14.3 µM; in the test on SNB-75 CNS, 9.44 µM; with SK-MEL-28 melanoma it was 14.5 µM; in the test on A549 NSCLC, 5.98 µM. The GI50 in the test on TK-10 renal is 25.1 µM; in the test on SK-MEL-5 melanoma, 6.1 µM; with SK-MEL-2 melanoma, 9.3 µM. For the same molecule, the TGI in the test with MDA-MB-231 breast is > 50 µM; with NCI-H23 lung, > 50 µM; in the test with M14 melanoma, 35.5 µM; in the test with SNB-75 CNS, 22 µM; in the test on SK-MEL-28 melanoma, 29.3 µM; in the test on A549 NSCLC, 16 µM. Besides, the TGI in the test with TK-10 renal was > 50 µM; with SK-MEL-5 melanoma, 13 µM; in the test on SK-MEL-2 melanoma it was 32.6 µM.

For the molecule `Cc1cc(S(=O)(=O)NC#N)c(S/C(=N\Nc2ccc([N+](=O)[O-])cc2)c2ccc(Cl)cc2)cc1Cl`, the GI50 with NCI-H23 lung was 77.9 µM; in the test with M14 melanoma, 54.5 µM; in the test with SNB-75 CNS, 38.1 µM; in the test with SK-MEL-28 melanoma it was 31.2 µM; with A549 NSCLC, 52.6 µM; with CCRF-CEM leukemia it was 32.1 µM. In addition, the figures for the GI50 with TK-10 renal, with SK-MEL-5 melanoma and in the test with SK-MEL-2 melanoma were 25 µM, 18.5 µM and > 100 µM, respectively. Besides, the TGI in the test on NCI-H23 lung, with M14 melanoma, in the test with SNB-75 CNS, with SK-MEL-28 melanoma, with A549 NSCLC and with CCRF-CEM leukemia was > 100 µM throughout. Moreover, the values for the TGI in the test on TK-10 renal, in the test on SK-MEL-5 melanoma and with SK-MEL-2 melanoma were > 100 µM, 42.3 µM and > 100 µM, respectively.

On to `COc1cc(C(=O)Nc2cc3c(cc2Oc2cc(C)cc(C)c2)C(=O)N(C)[C@@H](CC(=O)N(C)O)C(=O)N3)c(Br)c(OC)c1OC`, for which the GI50 in the test with MDA-MB-231 breast, in the test on NCI-H23 lung, in the test on M14 melanoma, with SNB-75 CNS, in the test with SK-MEL-28 melanoma and in the test on A549 NSCLC was < 0.00333 µM each time. The GI50 with TK-10 renal was 0.00526 µM; in the test on SK-MEL-5 melanoma it was < 0.00333 µM; in the test with SK-MEL-2 melanoma, < 0.00333 µM. Besides, the TGI is < 0.00333 µM with MDA-MB-231 breast; 0.00543 µM with NCI-H23 lung; 0.0101 µM with M14 melanoma; < 0.00333 µM with SNB-75 CNS; < 0.00333 µM in the test on SK-MEL-28 melanoma; 0.00742 µM with A549 NSCLC. Also, the TGI in the test on TK-10 renal was 0.0264 µM; in the test on SK-MEL-5 melanoma it was 0.0116 µM; with SK-MEL-2 melanoma, < 0.00333 µM.

On to `O=C(O)C1CCCCC1C(=O)O.[NH-]C1CCC1.[NH2-].[Pt+2]` (centres undefined), for which the GI50 in the test on MDA-MB-231 breast was 18.8 µM; with NCI-H23 lung, 22.4 µM; with M14 melanoma, 12.6 µM; in the test on SNB-75 CNS, 84.6 µM; with SK-MEL-28 melanoma it was 15.9 µM; with A549 NSCLC it was 30.7 µM. Further, the results for the GI50 with TK-10 renal, in the test with SK-MEL-5 melanoma and in the test on SK-MEL-2 melanoma were 18.1 µM, 3.36 µM and 57.2 µM, respectively. Also, the TGI was 38.2 µM in the test with MDA-MB-231 breast; > 100 µM with NCI-H23 lung; 27.3 µM with M14 melanoma; > 100 µM with SNB-75 CNS; 31.4 µM in the test on SK-MEL-28 melanoma; > 100 µM in the test with A549 NSCLC. Besides, the values for the TGI in the test on TK-10 renal, in the test with SK-MEL-5 melanoma and with SK-MEL-2 melanoma were 34.4 µM, 12.5 µM and > 100 µM, respectively.
